# Reference: patent publication US12590118B2, “Salt and crystal form of steroid derivative regulator” (Shanghai Hansoh Biomedical Co., Ltd., priority 2019, dated 2026)
# Assay: Crystal form stability experiment (XRPD)
# Type: physicochemical
# Experimental: X-ray powder diffraction assay was carried out, and the obtained data was compared with the initial data.
smiles,measurement,setting,value
"C[C@@H]1C[C@H](C(=O)Cn2ccc(C#N)n2)[C@@]2(C)CC[C@H]3[C@@H](CC[C@@H]4C[C@](C)(O)CC[C@@H]43)[C@H]12 [Crystal form I, 1-(2-((3R,5R,8R,9R,10S,13S,14S,15R,17S)-3-Hydroxy-3,13,15-trimethylhexadecahydro-1H-cyclopenta[a]phenanthren-17-yl)-2-oxoethyl)-1H-pyrazole-3-carbonitrile]",X-ray powder diffraction peak No. 1,0 day (initial),7.3
same,X-ray powder diffraction peak No. 2,0 day (initial),11.1
same,X-ray powder diffraction peak No. 3,0 day (initial),11.9
same,X-ray powder diffraction peak No. 4,0 day (initial),12.6
same,X-ray powder diffraction peak No. 5,0 day (initial),16.7
same,X-ray powder diffraction peak No. 6,0 day (initial),17.4
same,X-ray powder diffraction peak No. 7,0 day (initial),20.2
same,X-ray powder diffraction peak No. 8,0 day (initial),20.6
same,X-ray powder diffraction peak No. 9,0 day (initial),21.9
same,X-ray powder diffraction peak No. 10,0 day (initial),23.9
same,X-ray powder diffraction peak No. 11,0 day (initial),38.4
same,X-ray powder diffraction peak No. 1,"25° C. RH75%, 5 days",7.3
same,X-ray powder diffraction peak No. 2,"25° C. RH75%, 5 days",11.0
same,X-ray powder diffraction peak No. 3,"25° C. RH75%, 5 days",11.8
same,X-ray powder diffraction peak No. 4,"25° C. RH75%, 5 days",12.5
same,X-ray powder diffraction peak No. 5,"25° C. RH75%, 5 days",16.6
same,X-ray powder diffraction peak No. 6,"25° C. RH75%, 5 days",17.3
same,X-ray powder diffraction peak No. 7,"25° C. RH75%, 5 days",20.1
same,X-ray powder diffraction peak No. 8,"25° C. RH75%, 5 days",20.5
same,X-ray powder diffraction peak No. 9,"25° C. RH75%, 5 days",21.7
same,X-ray powder diffraction peak No. 10,"25° C. RH75%, 5 days",24.1
same,X-ray powder diffraction peak No. 11,"25° C. RH75%, 5 days",38.2
same,X-ray powder diffraction peak No. 1,"25° C. RH75%, 10 days",7.3
same,X-ray powder diffraction peak No. 2,"25° C. RH75%, 10 days",11.0
same,X-ray powder diffraction peak No. 3,"25° C. RH75%, 10 days",11.8
same,X-ray powder diffraction peak No. 4,"25° C. RH75%, 10 days",12.5
same,X-ray powder diffraction peak No. 5,"25° C. RH75%, 10 days",16.6
same,X-ray powder diffraction peak No. 6,"25° C. RH75%, 10 days",17.3
same,X-ray powder diffraction peak No. 7,"25° C. RH75%, 10 days",20.1
same,X-ray powder diffraction peak No. 8,"25° C. RH75%, 10 days",20.5
same,X-ray powder diffraction peak No. 9,"25° C. RH75%, 10 days",21.8
same,X-ray powder diffraction peak No. 10,"25° C. RH75%, 10 days",24.1
same,X-ray powder diffraction peak No. 11,"25° C. RH75%, 10 days",38.2
same,X-ray powder diffraction peak No. 1,"25° C. RH75%, 30 days",7.1
same,X-ray powder diffraction peak No. 2,"25° C. RH75%, 30 days",11.2
same,X-ray powder diffraction peak No. 3,"25° C. RH75%, 30 days",11.7
same,X-ray powder diffraction peak No. 4,"25° C. RH75%, 30 days",12.4
same,X-ray powder diffraction peak No. 5,"25° C. RH75%, 30 days",16.5
same,X-ray powder diffraction peak No. 6,"25° C. RH75%, 30 days",17.2
same,X-ray powder diffraction peak No. 7,"25° C. RH75%, 30 days",20.0
same,X-ray powder diffraction peak No. 8,"25° C. RH75%, 30 days",20.7
same,X-ray powder diffraction peak No. 9,"25° C. RH75%, 30 days",22.0
same,X-ray powder diffraction peak No. 10,"25° C. RH75%, 30 days",24.0
same,X-ray powder diffraction peak No. 11,"25° C. RH75%, 30 days",38.2
same,X-ray powder diffraction peak No. 1,"25° C. RH90%, 5 days",7.2
same,X-ray powder diffraction peak No. 2,"25° C. RH90%, 5 days",11.0
same,X-ray powder diffraction peak No. 3,"25° C. RH90%, 5 days",11.8
same,X-ray powder diffraction peak No. 4,"25° C. RH90%, 5 days",12.5
same,X-ray powder diffraction peak No. 5,"25° C. RH90%, 5 days",16.5
same,X-ray powder diffraction peak No. 6,"25° C. RH90%, 5 days",17.3
same,X-ray powder diffraction peak No. 7,"25° C. RH90%, 5 days",20.1
same,X-ray powder diffraction peak No. 8,"25° C. RH90%, 5 days",20.5
same,X-ray powder diffraction peak No. 9,"25° C. RH90%, 5 days",21.7
same,X-ray powder diffraction peak No. 10,"25° C. RH90%, 5 days",24.1
same,X-ray powder diffraction peak No. 11,"25° C. RH90%, 5 days",38.3
same,X-ray powder diffraction peak No. 1,"25° C. RH90%, 10 days",7.2
same,X-ray powder diffraction peak No. 2,"25° C. RH90%, 10 days",11.0
same,X-ray powder diffraction peak No. 3,"25° C. RH90%, 10 days",11.8
same,X-ray powder diffraction peak No. 4,"25° C. RH90%, 10 days",12.5
same,X-ray powder diffraction peak No. 5,"25° C. RH90%, 10 days",16.6
same,X-ray powder diffraction peak No. 6,"25° C. RH90%, 10 days",17.3
same,X-ray powder diffraction peak No. 7,"25° C. RH90%, 10 days",20.2
same,X-ray powder diffraction peak No. 8,"25° C. RH90%, 10 days",20.5
same,X-ray powder diffraction peak No. 9,"25° C. RH90%, 10 days",21.8
same,X-ray powder diffraction peak No. 10,"25° C. RH90%, 10 days",23.8
same,X-ray powder diffraction peak No. 11,"25° C. RH90%, 10 days",38.3
same,X-ray powder diffraction peak No. 1,"25° C. RH90%, 30 days",7.2
same,X-ray powder diffraction peak No. 2,"25° C. RH90%, 30 days",11.0
same,X-ray powder diffraction peak No. 3,"25° C. RH90%, 30 days",11.8
same,X-ray powder diffraction peak No. 4,"25° C. RH90%, 30 days",12.5
same,X-ray powder diffraction peak No. 5,"25° C. RH90%, 30 days",16.6
same,X-ray powder diffraction peak No. 6,"25° C. RH90%, 30 days",17.3
same,X-ray powder diffraction peak No. 7,"25° C. RH90%, 30 days",20.1
same,X-ray powder diffraction peak No. 8,"25° C. RH90%, 30 days",20.5
same,X-ray powder diffraction peak No. 9,"25° C. RH90%, 30 days",21.8
same,X-ray powder diffraction peak No. 10,"25° C. RH90%, 30 days",24.0
same,X-ray powder diffraction peak No. 11,"25° C. RH90%, 30 days",38.2
same,X-ray powder diffraction peak No. 1,"40° C., 5 days",7.2
same,X-ray powder diffraction peak No. 2,"40° C., 5 days",11.0
same,X-ray powder diffraction peak No. 3,"40° C., 5 days",11.8
same,X-ray powder diffraction peak No. 4,"40° C., 5 days",12.5
same,X-ray powder diffraction peak No. 5,"40° C., 5 days",16.6
same,X-ray powder diffraction peak No. 6,"40° C., 5 days",17.3
same,X-ray powder diffraction peak No. 7,"40° C., 5 days",20.1
same,X-ray powder diffraction peak No. 8,"40° C., 5 days",20.5
same,X-ray powder diffraction peak No. 9,"40° C., 5 days",22.1
same,X-ray powder diffraction peak No. 10,"40° C., 5 days",23.8
same,X-ray powder diffraction peak No. 11,"40° C., 5 days",38.3
same,X-ray powder diffraction peak No. 1,"40° C., 10 days",7.3
same,X-ray powder diffraction peak No. 2,"40° C., 10 days",11.0
same,X-ray powder diffraction peak No. 3,"40° C., 10 days",11.8
same,X-ray powder diffraction peak No. 4,"40° C., 10 days",12.5
same,X-ray powder diffraction peak No. 5,"40° C., 10 days",16.6
same,X-ray powder diffraction peak No. 6,"40° C., 10 days",17.3
same,X-ray powder diffraction peak No. 7,"40° C., 10 days",20.2
same,X-ray powder diffraction peak No. 8,"40° C., 10 days",20.5
same,X-ray powder diffraction peak No. 9,"40° C., 10 days",21.9
same,X-ray powder diffraction peak No. 10,"40° C., 10 days",23.8
same,X-ray powder diffraction peak No. 11,"40° C., 10 days",38.2
same,X-ray powder diffraction peak No. 1,"40° C., 30 days",7.2
same,X-ray powder diffraction peak No. 2,"40° C., 30 days",11.0
same,X-ray powder diffraction peak No. 3,"40° C., 30 days",11.8
same,X-ray powder diffraction peak No. 4,"40° C., 30 days",12.5
same,X-ray powder diffraction peak No. 5,"40° C., 30 days",16.6
same,X-ray powder diffraction peak No. 6,"40° C., 30 days",17.3
same,X-ray powder diffraction peak No. 7,"40° C., 30 days",20.1
same,X-ray powder diffraction peak No. 8,"40° C., 30 days",20.5
same,X-ray powder diffraction peak No. 9,"40° C., 30 days",22.0
same,X-ray powder diffraction peak No. 10,"40° C., 30 days",23.7
same,X-ray powder diffraction peak No. 11,"40° C., 30 days",38.2
same,X-ray powder diffraction peak No. 1,"60° C., 5 days",7.1
same,X-ray powder diffraction peak No. 2,"60° C., 5 days",10.9
same,X-ray powder diffraction peak No. 3,"60° C., 5 days",11.7
same,X-ray powder diffraction peak No. 4,"60° C., 5 days",12.4
same,X-ray powder diffraction peak No. 5,"60° C., 5 days",16.5
same,X-ray powder diffraction peak No. 6,"60° C., 5 days",17.2
same,X-ray powder diffraction peak No. 7,"60° C., 5 days",20.0
same,X-ray powder diffraction peak No. 8,"60° C., 5 days",20.7
same,X-ray powder diffraction peak No. 9,"60° C., 5 days",22.0
same,X-ray powder diffraction peak No. 10,"60° C., 5 days",24.0
same,X-ray powder diffraction peak No. 11,"60° C., 5 days",38.2
same,X-ray powder diffraction peak No. 1,"60° C., 10 days",7.2
same,X-ray powder diffraction peak No. 2,"60° C., 10 days",10.9
same,X-ray powder diffraction peak No. 3,"60° C., 10 days",11.7
same,X-ray powder diffraction peak No. 4,"60° C., 10 days",12.4
same,X-ray powder diffraction peak No. 5,"60° C., 10 days",16.5
same,X-ray powder diffraction peak No. 6,"60° C., 10 days",17.2
same,X-ray powder diffraction peak No. 7,"60° C., 10 days",20.1
same,X-ray powder diffraction peak No. 8,"60° C., 10 days",20.7
same,X-ray powder diffraction peak No. 9,"60° C., 10 days",22.0
same,X-ray powder diffraction peak No. 10,"60° C., 10 days",24.0
same,X-ray powder diffraction peak No. 11,"60° C., 10 days",38.2
same,X-ray powder diffraction peak No. 1,"60° C., 30 days",7.2
same,X-ray powder diffraction peak No. 2,"60° C., 30 days",11.0
same,X-ray powder diffraction peak No. 3,"60° C., 30 days",11.8
same,X-ray powder diffraction peak No. 4,"60° C., 30 days",12.5
same,X-ray powder diffraction peak No. 5,"60° C., 30 days",16.6
same,X-ray powder diffraction peak No. 6,"60° C., 30 days",17.3
same,X-ray powder diffraction peak No. 7,"60° C., 30 days",20.1
same,X-ray powder diffraction peak No. 8,"60° C., 30 days",20.4
same,X-ray powder diffraction peak No. 9,"60° C., 30 days",21.8
same,X-ray powder diffraction peak No. 10,"60° C., 30 days",23.8
same,X-ray powder diffraction peak No. 11,"60° C., 30 days",38.2
same,X-ray powder diffraction peak No. 1,"Light, 5 days",7.3
same,X-ray powder diffraction peak No. 2,"Light, 5 days",11.0
same,X-ray powder diffraction peak No. 3,"Light, 5 days",11.9
same,X-ray powder diffraction peak No. 4,"Light, 5 days",12.5
same,X-ray powder diffraction peak No. 5,"Light, 5 days",16.6
same,X-ray powder diffraction peak No. 6,"Light, 5 days",17.3
same,X-ray powder diffraction peak No. 7,"Light, 5 days",20.1
same,X-ray powder diffraction peak No. 8,"Light, 5 days",20.6
same,X-ray powder diffraction peak No. 9,"Light, 5 days",22.1
same,X-ray powder diffraction peak No. 10,"Light, 5 days",23.9
same,X-ray powder diffraction peak No. 11,"Light, 5 days",38.3
same,X-ray powder diffraction peak No. 1,"Light, 10 days",7.3
same,X-ray powder diffraction peak No. 2,"Light, 10 days",11.1
same,X-ray powder diffraction peak No. 3,"Light, 10 days",11.9
same,X-ray powder diffraction peak No. 4,"Light, 10 days",12.5
same,X-ray powder diffraction peak No. 5,"Light, 10 days",16.7
same,X-ray powder diffraction peak No. 6,"Light, 10 days",17.3
same,X-ray powder diffraction peak No. 7,"Light, 10 days",20.2
same,X-ray powder diffraction peak No. 8,"Light, 10 days",20.5
same,X-ray powder diffraction peak No. 9,"Light, 10 days",21.9
same,X-ray powder diffraction peak No. 10,"Light, 10 days",23.9
same,X-ray powder diffraction peak No. 11,"Light, 10 days",38.3
same,crystal form stability by XRPD (in words),"light, 40° C., 60° C., 25° C./RH75%, 25° C./RH90%, 5, 10 and 30 days",No crystal form conversion had occurred
